Experimental data as given in patent US8865672B2, “Prevention of tissue ischemia and related methods” (The United States of America, as represented by the …, priority 2006, dated 2014).

What was measured:
HASMC [1] = experiment: NO-stimulated HASMC adhesion on type I collagen; assay type: cell-based, human; conditions: DEA/NO 10 μM, 1 h
Experimental: Cell adhesion was carried out in 96-well culture plates. After pre-coating wells with type I collagen (3 μg/ml in DPBS) harvested cells were plated at a density of 1×10^4 cells/well in medium plus 0.1% BSA and treatment agents and incubated in 5% CO2 for 1 h. Wells were washed with PBS and cells fixed with 1% glutaraldehyde for 10 min., washed and stained with 1% crystal violet for 20 min. Excess stain was rinsed away, adherent cells treated with 10% acetic acid, and plates read at 570 nm.

HASMC [2] = experiment: HASMC proliferation (MTS); assay type: cell-based, human; conditions: DETA/NO 10 μM, 72 h
Experimental: Proliferation of vascular cells was measured with a non-radioactive colorimetric assay (CellTiter 96, Promega, Madison, Wis.). Briefly, to each well of a 96-well culture plate (Nunc, Denmark) 5×10^3 cells were suspended in 100 μl of culture medium with indicated treatments and incubated for 72 hours at 37° C. in a 5% CO2 atmosphere. Following incubation 20 μl of tetrazolium compound/solubilization agent was added and incubation continued for 4 hours under the same conditions. The plate was then read on a MR580 Microelisa Auto Reader (Dynatech) at a wavelength of 490 nm. Appropriate zero time controls were run for all assays and the optical density readings obtained then subtracted from those obtained at 72 hours.

HASMC [3] = experiment: Intracellular cGMP in HASMC; assay type: cell-based, human; conditions: DEA/NO 10 μM, 5 minutes
[4] = test system: murine ASMC (WT, CD36 null, CD47 null); experiment: Intracellular cGMP in murine ASMC; assay type: cell-based, mouse
Procedure, shortened: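 Aortic smooth muscle cells from wild-type C57Bl/6, CD36-null or CD47-null mice, passage 1–4, plated overnight in full growth medium. Weaned to SM-GM + 0.1% BSA before treatment with NO donor and other agents. Intracellular cGMP measured by enzyme immunoassay.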

In the case of “CBD: recombinant C-terminal cell-binding domain (G module) of TSP1”, the “NO-stimulated HASMC adhesion on type I collagen” value (HASMC [1]) is reported as “slightly less active but also dose-dependently inhibited”, the “NO-stimulated HASMC proliferation” value (HASMC [2]) is reported as “inhibited NO-stimulated HASMC proliferation” and the “NO-stimulated cGMP levels in HASMC” value (HASMC [3]) is reported as “equipotent dose-dependent inhibitors”. The “NO-stimulated cGMP” value ([4]; CD36 null MASMC) was “completely inhibited” and the “NO-stimulated cGMP” value ([4]; CD47 null MASMC) was “did not significantly inhibit”.
